System: NADPH oxidase
Test: NADPH-oxidase activity in pollution-exposed fibroblasts (Example 6)
Assay type: cell-based, human
Protocol: Method: Cells are incubated for 30 minutes with the test elements (either pollutant or Composition A). NADPH oxidase activity is determined immediately using chemioluminescence. Conditions: Untreated and unexposed to pollution, Untreated and exposed to pollution and Treated with personal care composition and exposed to pollution. As a comparison to the personal care composition, niacinamide was tested at low concentration (“niacinamide (low)”) and high concentration (“niacinamide (high)”) in DMSO. (The high niacinamide concentration was 6.67 times the low niacinamide concentration.) Composition B was diluted until its niacinamide concentration was the same as the niacinamide (low) concentration. The cells used in the study were human primary fibroblasts originating from a healthy donor. As in Example 5, the pollutant was urban standardized particles composed with metals, polyaromatic hydrocarbons (PAHs), nitro-PAHs, PCBs, chlorinated pesticide, etc., of micrometric diameter. NADPH-oxidase activity and mitochondrial associated membranes (MAMs) were experimentally determined and quantified in the same manner as in Example 5.

niacinamide
NADPH oxidase activity relative to NE-NTC (niacinamide (high) concentration, 6.67 times the low): level below that observed in NE-NTC | NADPH oxidase activity relative to NE-NTC (niacinamide (low) concentration, Composition B diluted to the same niacinamide concentration): level similar to that observed in the NE-NTC
